In PubChem BioAssay (NCI):
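Where inhibition never reached the appropriate level, the endpoint shown equals the highest concentration tested. Otherwise, values were interpolated linearly from a five-concentration, 48-hour dose response in 96-well plates. The concentration for 50% growth inhibition is given as GI50. TGI is the concentration that stops growth completely.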

How the values were obtained:
Test in all cases: NCI-60 cell line screen, 48 h
CCRF-CEM leukemia = test system: CCRF-CEM leukemia
COLO 205 colon = test system: COLO 205 colon
K-562 leukemia = test system: K-562 leukemia
MOLT-4 leukemia = test system: MOLT-4 leukemia
NCI-H226 lung = test system: NCI-H226 lung
NCI-H23 lung = test system: NCI-H23 lung
SK-MEL-28 melanoma = test system: SK-MEL-28 melanoma
SNB-19 CNS = test system: SNB-19 CNS
SR leukemia = test system: SR leukemia
SW-620 colon = test system: SW-620 colon

| SMILES | GI50 (CCRF-CEM leukemia) | TGI (CCRF-CEM leukemia) | GI50 (COLO 205 colon) | TGI (COLO 205 colon) | GI50 (K-562 leukemia) | TGI (K-562 leukemia) | GI50 (MOLT-4 leukemia) | TGI (MOLT-4 leukemia) | GI50 (NCI-H226 lung) | TGI (NCI-H226 lung) | GI50 (NCI-H23 lung) | TGI (NCI-H23 lung) | GI50 (SK-MEL-28 melanoma) | TGI (SK-MEL-28 melanoma) | GI50 (SNB-19 CNS) | TGI (SNB-19 CNS) | GI50 (SR leukemia) | TGI (SR leukemia) | GI50 (SW-620 colon) | TGI (SW-620 colon) |
| --- | --- | --- | --- | --- | --- | --- | --- | --- | --- | --- | --- | --- | --- | --- | --- | --- | --- | --- | --- | --- |
| CCC(C)CC(C)C(=O)c1c(O)ccn(O)c1=O (stereo not given) | 0.6 µM | > 100 µM | 38.3 µM | > 100 µM | 0.631 µM | > 100 µM | 1.06 µM | 17.6 µM | 15.8 µM | 75.3 µM | 1.98 µM | > 100 µM | 2.27 µM | > 100 µM | 1.19 µM | > 100 µM | 0.498 µM | 18.3 µM | 0.607 µM | > 100 µM |
| FC(F)(F)c1cc(-c2ncn(/C=C\c3nnco3)n2)cc(C(F)(F)F)c1 | 0.107 µM | > 100 µM | 0.055 µM | 14 µM | 0.06 µM | > 42.2 µM | 0.0284 µM | 0.938 µM | 0.0383 µM | 23.6 µM | 0.146 µM | > 41.4 µM | 0.125 µM | 49.3 µM | 0.126 µM | > 100 µM | 0.0246 µM | 12.6 µM | 0.0536 µM | > 43.1 µM |
| CC1(C)OC2C(CO)OC(n3ccc(N)nc3=O)C2O1 (stereo not given) | – | > 100 µM | – | > 100 µM | – | > 100 µM | – | > 100 µM | – | > 100 µM | – | > 100 µM | – | > 100 µM | – | > 100 µM | – | > 100 µM | – | > 100 µM |
| NC(CO)c1ccc(OCc2ccccc2)cc1 (stereo not given) | – | > 100 µM | – | > 100 µM | – | > 100 µM | – | > 100 µM | – | > 100 µM | – | > 100 µM | – | > 100 µM | – | > 100 µM | – | 81.5 µM | – | > 100 µM |
